Experimental data from ChEMBL document CHEMBL5385927, “Chemical and Antiplasmodial Investigations on Eremophila-Derived Alkaloids and Semisynthetic Ether Analogues” (J Nat Prod, 2024).

Key:
[1] = Cytotoxicity against human HEK293 cells assessed as inhibition of cell viability at 80 uM measured after 66 hrs by Alamar Blue dye based fluorescence analysis; format: toxicity; conditions: read-out: INH
Plasmodium falciparum [2] = assay: Antiplasmodial activity against choloroquine-sensitive ring stage of Plasmodium falciparum 3D7 assessed as inhibition of parasite growth measured after 72 hrs by DAPI staining based analysis; format: functional, organism-based; conditions: 3D7, 72 h
Plasmodium falciparum [3] = assay: Antiplasmodial activity against choloroquine-sensitive ring stage of Plasmodium falciparum 3D7 assessed as inhibition of parasite growth at 40 uM measured after 72 hrs by DAPI staining based analysis; format: functional
[4] = Cytotoxicity against human HEK293 cells assessed as inhibition of cell viability measured after 66 hrs by Alamar Blue dye based fluorescence analysis; format: toxicity

| Compound | cytotoxicity at 66 h, 80 µM [1] [%] | IC50 (Plasmodium falciparum [2]) [µM] | inhibition at 40 µM (Plasmodium falciparum [3]) [%] | IC50 at 66 h [4] [µM] |
| --- | --- | --- | --- | --- |
| C=CCOc1cc(C)c2ncc(CCC=C(C)C)c3c2c1[C@H](C)CC3 | 85 | 13.1 |  |  |
| CC(C)=CCCc1cnc2c(C)cc(OC3CCCC3)c3c2c1CC[C@H]3C | 83 | 12.5 |  |  |
| CC(C)=CCCc1cnc2c(C)cc(OCc3cccc(Cl)c3)c3c2c1CC[C@H]3C | 65 | 11 |  |  |
| CC(C)=CCCc1cnc2c(C)cc(O)c3c2c1[C@H](O)C[C@H]3C | 14 |  | 78 |  |
| CC(C)=CCCc1cnc2c(C)cc(OCc3ccccc3-c3ccccc3)c3c2c1CC[C@H]3C | 94 | 8 |  |  |
| CC(C)=CCCc1cnc2c(C)cc(OCc3ccc(Br)cc3)c3c2c1CC[C@H]3C |  | 9.7 |  | 40.7 |
| CC(C)=CCCc1cnc2c(C)cc(OCc3cccc([N+](=O)[O-])c3)c3c2c1CC[C@H]3C | 7 | 13.1 |  |  |
| CC(C)=CCCc1cnc2c(C)cc(O)c3c2c1CC[C@H]3C | 92 | 8.9 |  |  |
| CC(C)=CCCc1cnc2c(C)cc(OCc3ccccc3)c3c2c1CC[C@H]3C |  | 7.6 |  | 30.8 |
| CC(C)=CCCc1cnc2c(C)cc(OCc3cc(F)ccc3F)c3c2c1CC[C@H]3C |  | 8 |  | 31.4 |
| COc1ccc(C[C@H](N)C(=O)N[C@H]2[C@@H](O)[C@H](n3cnc4c(N(C)C)ncnc43)O[C@@H]2CO)cc1 [PUROMYCIN] |  | 0.033 |  | 0.49 |
| C[C@H]1[C@@H](O)O[C@@H]2O[C@@]3(C)CC[C@H]4[C@H](C)CC[C@@H]1[C@@]24OO3 [ARTENIMOL] |  | 0.021 |  |  |
| CC(C)=CCCc1cnc2c(C)cc(OC3CCCCC3)c3c2c1CC[C@H]3C | 23 |  | 93 |  |
| CC(C)=CCCc1cnc2c(C)cc(OCc3cccc(Br)c3)c3c2c1CC[C@H]3C |  | 7.2 |  | 39.3 |
